Source: patent US9260439B2, “Dihydropyrrolopyrimidine derivatives” (PFIZER INC., priority 2014, dated 2016)

Each molecule was assayed against truncated PI3Kα (p110α/iSH2 p85α) (Homo sapiens (Human), UniProt P42336) (assay: PI3KA_Act fluorescence polarization kinase assay (Ki)). Details: 1 mM ATP.
Format: biochemical
Procedure, shortened: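 p110α/iSH2 p85α (0.5 nM) was reacted with 30 μM sonicated PIP2 in 50 mM HEPES pH 7.4, 150 mM NaCl, 5 mM MgCl2, 1 mM DTT and 0.05% CHAPS for 30 min at room temperature, then stopped with EDTA. PIP3 was detected by fluorescence polarization (GST-Grp1 PH domain/TAMRA-PIP3), and Ki came from a Morrison tight-binding fit.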

Sequence of truncated PI3Kα (p110α/iSH2 p85α) (P42336 whole entry, the tested form may be a part): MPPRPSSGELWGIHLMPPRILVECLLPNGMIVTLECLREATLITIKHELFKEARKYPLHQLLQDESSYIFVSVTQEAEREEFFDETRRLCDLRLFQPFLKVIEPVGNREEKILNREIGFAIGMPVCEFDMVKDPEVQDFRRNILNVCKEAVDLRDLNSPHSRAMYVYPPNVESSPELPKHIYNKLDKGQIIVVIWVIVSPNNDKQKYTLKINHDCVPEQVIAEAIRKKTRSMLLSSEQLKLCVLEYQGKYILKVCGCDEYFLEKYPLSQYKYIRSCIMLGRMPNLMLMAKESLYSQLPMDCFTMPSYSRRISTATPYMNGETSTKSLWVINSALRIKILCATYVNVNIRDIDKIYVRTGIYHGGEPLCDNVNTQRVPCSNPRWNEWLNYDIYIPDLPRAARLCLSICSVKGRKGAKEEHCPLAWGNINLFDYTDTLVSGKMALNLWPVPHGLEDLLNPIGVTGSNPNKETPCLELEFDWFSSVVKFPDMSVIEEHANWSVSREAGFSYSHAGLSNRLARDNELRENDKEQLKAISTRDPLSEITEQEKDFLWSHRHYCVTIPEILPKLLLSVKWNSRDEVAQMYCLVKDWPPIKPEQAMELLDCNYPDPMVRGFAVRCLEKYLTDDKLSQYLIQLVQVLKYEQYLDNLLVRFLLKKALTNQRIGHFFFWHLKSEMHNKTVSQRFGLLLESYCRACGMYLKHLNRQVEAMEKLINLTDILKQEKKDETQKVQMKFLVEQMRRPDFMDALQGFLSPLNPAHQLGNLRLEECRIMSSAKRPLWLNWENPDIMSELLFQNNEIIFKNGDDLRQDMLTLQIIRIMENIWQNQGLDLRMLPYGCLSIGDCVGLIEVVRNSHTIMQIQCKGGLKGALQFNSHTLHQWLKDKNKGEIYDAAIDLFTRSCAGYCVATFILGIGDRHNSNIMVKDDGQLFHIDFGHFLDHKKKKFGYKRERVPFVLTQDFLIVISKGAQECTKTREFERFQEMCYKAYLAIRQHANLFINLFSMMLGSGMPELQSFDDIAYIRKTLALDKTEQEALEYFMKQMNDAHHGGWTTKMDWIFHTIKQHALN

Compound | PI3KA_Act Ki [nM]
C[C@@]1(N2CCc3c(-c4cnc(N)nc4)nc(N4CCOCC4)nc32)CCN(C(=O)CC#N)C1 [Example 266, 3-{(3R)-3-[4-(2-aminopyrimidin-5-yl)-2-(morpholin-4-yl)-5,6-dihydro-7H-pyrrolo[2,3-d]pyrimidin-7-yl]-3-methylpyrrolidin-1-yl}-3-oxopropanenitrile] | 0.139
C[C@@H](O)C(=O)N1CC[C@](C)(N2CCc3c(-c4cnc(N)nc4)nc(N4CCOCC4)nc32)C1 [Example 267, (2R)-1-{(3S)-3-[4-(2-aminopyrimidin-5-yl)-2-(morpholin-4-yl)-5,6-dihydro-7H-pyrrolo[2,3-d]pyrimidin-7-yl]-3-methylpyrrolidin-1-yl}-2-hydroxypropan-1-one] | 0.041
C[C@H](O)C(=O)N1CC[C@](C)(N2CCc3c(-c4cnc(N)nc4)nc(N4CCOCC4)nc32)C1 [Example 268, (2S)-1-{(3S)-3-[4-(2-aminopyrimidin-5-yl)-2-(morpholin-4-yl)-5,6-dihydro-7H-pyrrolo[2,3-d]pyrimidin-7-yl]-3-methylpyrrolidin-1-yl}-2-hydroxypropan-1-one] | 0.100
C[C@@H](O)C(=O)N1CC[C@@](C)(N2CCc3c(-c4cnc(N)nc4)nc(N4CCOCC4)nc32)C1 [Example 269, (2R)-1-{(3R)-3-[4-(2-aminopyrimidin-5-yl)-2-(morpholin-4-yl)-5,6-dihydro-7H-pyrrolo[2,3-d]pyrimidin-7-yl]-3-methylpyrrolidin-1-yl}-2-hydroxypropan-1-one] | 0.222
C[C@H](O)C(=O)N1CC[C@@](C)(N2CCc3c(-c4cnc(N)nc4)nc(N4CCOCC4)nc32)C1 [Example 270, (2S)-1-{(3R)-3-[4-(2-aminopyrimidin-5-yl)-2-(morpholin-4-yl)-5,6-dihydro-7H-pyrrolo[2,3-d]pyrimidin-7-yl]-3-methylpyrrolidin-1-yl}-2-hydroxypropan-1-one] | 0.074
CC(C)[C@@H](O)C(=O)N1CC[C@](C)(N2CCc3c(-c4cnc(N)nc4)nc(N4CCOCC4)nc32)C1 [Example 271, (2R)-1-{(3S)-3-[4-(2-aminopyrimidin-5-yl)-2-(morpholin-4-yl)-5,6-dihydro-7H-pyrrolo[2,3-d]pyrimidin-7-yl]-3-methylpyrrolidin-1-yl}-2-hydroxy-3-methylbutan-1-one] | 0.016
CC(C)[C@H](O)C(=O)N1CC[C@](C)(N2CCc3c(-c4cnc(N)nc4)nc(N4CCOCC4)nc32)C1 [Example 272, (2S)-1-{(3S)-3-[4-(2-aminopyrimidin-5-yl)-2-(morpholin-4-yl)-5,6-dihydro-7H-pyrrolo[2,3-d]pyrimidin-7-yl]-3-methylpyrrolidin-1-yl}-2-hydroxy-3-methylbutan-1-one] | 0.022
CC(C)(O)C(=O)N1CC[C@](C)(N2CCc3c(-c4cnc(N)nc4)nc(N4CCOCC4)nc32)C1 [Example 275, 1-{(3S)-3-[4-(2-aminopyrimidin-5-yl)-2-(morpholin-4-yl)-5,6-dihydro-7H-pyrrolo[2,3-d]pyrimidin-7-yl]-3-methylpyrrolidin-1-yl}-2-hydroxy-2-methylpropan-1-one] | 0.030
CC(C)(O)CN1CC[C@@](C)(N2CCc3c(-c4cnc(N)nc4)nc(N4CCOCC4)nc32)C1 [Example 276, 1-{(3R)-3-[4-(2-aminopyrimidin-5-yl)-2-(morpholin-4-yl)-5,6-dihydro-7H-pyrrolo[2,3-d]pyrimidin-7-yl]-3-methylpyrrolidin-1-yl}-2-methylpropan-2-ol] | 0.182
COC(C)(C)C(=O)N1CC[C@](C)(N2CCc3c(-c4cnc(N)nc4)nc(N4CCOCC4)nc32)C1 [Example 278, 1-{(3S)-3-[4-(2-aminopyrimidin-5-yl)-2-(morpholin-4-yl)-5,6-dihydro-7H-pyrrolo[2,3-d]pyrimidin-7-yl]-3-methylpyrrolidin-1-yl}-2-methoxy-2-methylpropan-1-one] | <0.018
COCC(=O)N1CC[C@](C)(N2CCc3c(-c4cnc(N)nc4)nc(N4CCOCC4)nc32)C1 [Example 279, 1-{(3S)-3-[4-(2-aminopyrimidin-5-yl)-2-(morpholin-4-yl)-5,6-dihydro-7H-pyrrolo[2,3-d]pyrimidin-7-yl]-3-methylpyrrolidin-1-yl}-2-methoxyethanone] | 0.027
COCC(=O)N1CC[C@@](C)(N2CCc3c(-c4cnc(N)nc4)nc(N4CCOCC4)nc32)C1 [Example 280, 1-{(3R)-3-[4-(2-aminopyrimidin-5-yl)-2-(morpholin-4-yl)-5,6-dihydro-7H-pyrrolo[2,3-d]pyrimidin-7-yl]-3-methylpyrrolidin-1-yl}-2-methoxyethanone] | 0.154
CC(C)(N)CC(=O)N1CC[C@](C)(N2CCc3c(-c4cnc(N)nc4)nc(N4CCOCC4)nc32)C1.Cl [Example 281, 3-amino-1-{(3S)-3-[4-(2-aminopyrimidin-5-yl)-2-(morpholin-4-yl)-5,6-dihydro-7H-pyrrolo[2,3-d]pyrimidin-7-yl]-3-methylpyrrolidin-1-yl}-3-methylbutan-1-one hydrochloride] | 0.024
CC(C)(N)C(=O)N1CC[C@@H](N2CCc3c(-c4cnc(N)nc4)nc(N4CCOCC4)nc32)C1.Cl [Example 282, 2-amino-1-{(3R)-3-[4-(2-aminopyrimidin-5-yl)-2-(morpholin-4-yl)-5,6-dihydro-7H-pyrrolo[2,3-d]pyrimidin-7-yl]pyrrolidin-1-yl}-2-methylpropan-1-one hydrochloride] | 4.040
CC(C)(N)C(=O)N1CC[C@H](N2CCc3c(-c4cnc(N)nc4)nc(N4CCOCC4)nc32)C1.Cl [Example 283, 2-amino-1-{(3S)-3-[4-(2-aminopyrimidin-5-yl)-2-(morpholin-4-yl)-5,6-dihydro-7H-pyrrolo[2,3-d]pyrimidin-7-yl]pyrrolidin-1-yl}-2-methylpropan-1-one hydrochloride] | 0.208
CC[C@@]1(N2CCc3c(-c4cnc(N)nc4)nc(N4CCOCC4)nc32)CCN(C(=O)C(C)(C)N)C1.Cl [Example 284, 2-amino-1-{(3R)-3-[4-(2-aminopyrimidin-5-yl)-2-(morpholin-4-yl)-5,6-dihydro-7H-pyrrolo[2,3-d]pyrimidin-7-yl]-3-ethylpyrrolidin-1-yl}-2-methylpropan-1-one hydrochloride] | 0.368
CC[C@]1(N2CCc3c(-c4cnc(N)nc4)nc(N4CCOCC4)nc32)CCN(C(=O)C(C)(C)N)C1.Cl [Example 285, 2-amino-1-{(3S)-3-[4-(2-aminopyrimidin-5-yl)-2-(morpholin-4-yl)-5,6-dihydro-7H-pyrrolo[2,3-d]pyrimidin-7-yl]-3-ethylpyrrolidin-1-yl}-2-methylpropan-1-one hydrochloride] | 0.089
CC(C)[C@@H](N)C(=O)N1CC[C@@H](N2CCc3c(-c4cnc(N)nc4)nc(N4CCOCC4)nc32)C1.Cl [Example 286, (2R)-2-amino-1-{(3R)-3-[4-(2-aminopyrimidin-5-yl)-2-(morpholin-4-yl)-5,6-dihydro-7H-pyrrolo[2,3-d]pyrimidin-7-yl]pyrrolidin-1-yl}-3-methylbutan-1-one hydrochloride] | 5.810
